Key:
Assay in all cases: relative viability (nuclei count vs DMSO), 5 days (fraction); higher = more cells survive
NCI-H1623 = tested on: NCI-H1623
How it was run: (§1)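 Dosing by pin tool came one day after lung cancer cell lines were seeded in 1536-well plates, using either one drug or a fixed anchor-drug dose plus five library-drug doses (not always all listed) in √10 steps. After 5 days, nuclei were counted on 4× images. Relative viability is treated-well nuclei count divided by vehicle-well nuclei count, and values are medians of duplicate plates.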

NCI-H1648 = tested on: NCI-H1648
How it was run: as §1

LCLC-103H = tested on: LCLC-103H
How it was run: as §1

NCI-H1355 = tested on: NCI-H1355
How it was run: as §1

NCI-H520 = tested on: NCI-H520
How it was run: as §1

NCI-H522 = tested on: NCI-H522
How it was run: as §1

Oc1nc(-c2ccc(C(F)(F)F)cc2)nc2c1CSCC2 [XAV939] + Cc1cc(Nc2cc(N3CCN(C)CC3)nc(Sc3ccc(NC(=O)C4CC4)cc3)n2)n[nH]1 [Tozasertib] (partner 0.1 µM)
relative viability (NCI-H1623; first compound 0.08 µM): 0.403 | relative viability (NCI-H1623; first compound 0.253 µM): 0.414 | relative viability (NCI-H1623; first compound 0.8 µM): 0.386 | relative viability (NCI-H1623; first compound 2.53 µM): 0.373 | relative viability (NCI-H1648; first compound 0.08 µM): 0.664 | relative viability (NCI-H1648; first compound 0.8 µM): 0.453 | relative viability (NCI-H1648; first compound 2.53 µM): 0.275 | relative viability (LCLC-103H; first compound 0.08 µM): 0.576 | relative viability (LCLC-103H; first compound 0.253 µM): 0.402 | relative viability (LCLC-103H; first compound 0.8 µM): 0.444 | relative viability (LCLC-103H; first compound 2.53 µM): 0.504 | relative viability (NCI-H1355; first compound 0.08 µM): 0.715 | relative viability (NCI-H1355; first compound 0.253 µM): 0.473 | relative viability (NCI-H1355; first compound 0.8 µM): 0.548 | relative viability (NCI-H1355; first compound 2.53 µM): 0.411 | relative viability (NCI-H520; first compound 0.08 µM): 0.42 | relative viability (NCI-H520; first compound 0.253 µM): 0.439 | relative viability (NCI-H520; first compound 0.8 µM): 0.461 | relative viability (NCI-H520; first compound 2.53 µM): 0.427 | relative viability (NCI-H522; first compound 0.08 µM): 0.6 | relative viability (NCI-H522; first compound 0.253 µM): 0.529 | relative viability (NCI-H522; first compound 0.8 µM): 0.568 | relative viability (NCI-H522; first compound 2.53 µM): 0.638

CC1(C)CCC(c2ccc(Cl)cc2)=C(CN2CCN(c3ccc(C(=O)NS(=O)(=O)c4ccc(N[C@H](CCN5CCOCC5)CSc5ccccc5)c(S(=O)(=O)C(F)(F)F)c4)cc3)CC2)C1 [Navitoclax] + COc1cccc2cc(-c3nc([C@H]4CC[C@H](C(=O)O)CC4)n4ncnc(N)c34)[nH]c12 [OSI-027] (partner 0.5 µM)
relative viability (NCI-H1623; first compound 0.005 µM): 0.419 | relative viability (NCI-H1623; first compound 0.01581 µM): 0.376 | relative viability (NCI-H1623; first compound 0.05 µM): 0.369 | relative viability (NCI-H1623; first compound 0.1581 µM): 0.439 | relative viability (NCI-H1623; first compound 0.5 µM): 0.373 | relative viability (NCI-H1648; first compound 0.005 µM): 0.257 | relative viability (NCI-H1648; first compound 0.01581 µM): 0.256 | relative viability (NCI-H1648; first compound 0.1581 µM): 0.253 | relative viability (NCI-H1648; first compound 0.5 µM): 0.306 | relative viability (LCLC-103H; first compound 0.005 µM): 0.462 | relative viability (LCLC-103H; first compound 0.01581 µM): 0.449 | relative viability (LCLC-103H; first compound 0.05 µM): 0.399 | relative viability (LCLC-103H; first compound 0.1581 µM): 0.479 | relative viability (LCLC-103H; first compound 0.5 µM): 0.533 | relative viability (NCI-H1355; first compound 0.005 µM): 0.447 | relative viability (NCI-H1355; first compound 0.01581 µM): 0.469 | relative viability (NCI-H1355; first compound 0.05 µM): 0.425 | relative viability (NCI-H1355; first compound 0.1581 µM): 0.397 | relative viability (NCI-H1355; first compound 0.5 µM): 0.431 | relative viability (NCI-H520; first compound 0.01581 µM): 0.231 | relative viability (NCI-H520; first compound 0.05 µM): 0.318 | relative viability (NCI-H520; first compound 0.1581 µM): 0.201 | relative viability (NCI-H520; first compound 0.5 µM): 0.31 | relative viability (NCI-H522; first compound 0.005 µM): 0.605 | relative viability (NCI-H522; first compound 0.01581 µM): 0.705 | relative viability (NCI-H522; first compound 0.05 µM): 0.702 | relative viability (NCI-H522; first compound 0.1581 µM): 0.685 | relative viability (NCI-H522; first compound 0.5 µM): 0.747

O=C(O)c1ccc(-c2c[nH]c3ncc(-c4ccccc4)cc23)cc1C1CCCC1 + COc1cccc2cc(-c3nc([C@H]4CC[C@H](C(=O)O)CC4)n4ncnc(N)c34)[nH]c12 [OSI-027] (partner 0.5 µM)
relative viability (NCI-H1623; first compound 0.04 µM): 0.4 | relative viability (NCI-H1623; first compound 0.1265 µM): 0.455 | relative viability (NCI-H1623; first compound 0.4 µM): 0.449 | relative viability (NCI-H1623; first compound 1.265 µM): 0.432 | relative viability (NCI-H1648; first compound 0.04 µM): 0.245 | relative viability (NCI-H1648; first compound 0.1265 µM): 0.246 | relative viability (NCI-H1648; first compound 0.4 µM): 0.254 | relative viability (NCI-H1648; first compound 1.265 µM): 0.239 | relative viability (LCLC-103H; first compound 0.04 µM): 0.444 | relative viability (LCLC-103H; first compound 0.1265 µM): 0.554 | relative viability (LCLC-103H; first compound 0.4 µM): 0.389 | relative viability (LCLC-103H; first compound 1.265 µM): 0.452 | relative viability (NCI-H1355; first compound 0.04 µM): 0.43 | relative viability (NCI-H1355; first compound 0.1265 µM): 0.47 | relative viability (NCI-H1355; first compound 0.4 µM): 0.371 | relative viability (NCI-H1355; first compound 1.265 µM): 0.379 | relative viability (NCI-H520; first compound 0.04 µM): 0.23 | relative viability (NCI-H520; first compound 0.1265 µM): 0.269 | relative viability (NCI-H520; first compound 0.4 µM): 0.336 | relative viability (NCI-H520; first compound 1.265 µM): 0.242 | relative viability (NCI-H522; first compound 0.04 µM): 0.756 | relative viability (NCI-H522; first compound 0.1265 µM): 0.74 | relative viability (NCI-H522; first compound 0.4 µM): 0.56 | relative viability (NCI-H522; first compound 1.265 µM): 0.775
